According to patent publication EP0354453A2, “Antimicrobial agent for animals” (priority 1988, dated 1990):
≈ marks a conversion by molar mass, not a printed value. Counter-ions that a name gives are not always drawn. Like-named read-outs stand apart in the source and are kept apart here.

Legend:
[1] = system: Bordetella bronchiaseptica OKM-1; assay: in vitro antimicrobial activity (MIC), agar dilution, Part 2; format: cell-based
Procedure: (§1) Test microorganisms listed in Table 2 were cultured overnight in heart infusion nutrient broth (produced by Eiken Chemical Co., Ltd.). Culture broth containing about 10⁸/ml cells was diluted to a volume of 100 times. An aliquot (about 0.05 ml) of the diluted broth was inoculated onto a Mueller Hinton agar plate (produced by Eiken Chemical Co., Ltd.) to which Compound No. 1 was added in a prescribed concentration. […]
(§2) MIC of Compounds (1)-(8) against various pathogenic bacteria derived from animals was determined in the same manner as in Example 1.

Escherichia coli 139 = assay: as above; format: cell-based
Procedure: as §1, §2

Escherichia coli 881 = assay: as above; format: cell-based
Procedure: as §1, §2

Escherichia coli S6W = assay: as above; format: cell-based
Procedure: as §1, §2

[2] = system: Salmonella typhimurium 103; assay: as above; format: cell-based; conditions: Salmonella enterica
Procedure: as §1, §2

[3] = system: Salmonella typhimurium 569; assay: as above; format: cell-based
Procedure: as §1, §2

[4] = system: Staphylococcus aureus Yamaguchi 6; assay: as above; format: cell-based
Procedure: as §1, §2

[5] = system: Pasteurella multocida DB-12-1; assay: as above; format: cell-based; conditions: DB121
Procedure: as §1, §2

[6] = system: Mycoplasma gallisepticum Strain 2004; assay: in vitro antimicrobial activity (MIC) in Frey liquid medium; format: cell-based; conditions: Mycoplasmoides gallisepticum, STRAIN2004
Procedure: (§3) Various test strains of Mycoplasma gallisepticum derived from chicken were cultured in a Frey liquid medium for Mycoplasma for 3 days. The culture broth containing about 10⁸/ml cells was diluted to a volume of 100 times. The diluted broth was inoculated into Frey liquid media for Mycoplasma to which the compounds of this invention were added at prescribed concentrations. The cells were incubated at 37°C for 3-5 days while daily observing the color of the media. Among the culture broths maintaining yellow color at the time when the control to which no test compound was added turned red, the concentration of the broth having the minimum concentration was taken as the MIC of the compound.

[7] = system: Mycoplasma gallisepticum Strain 2012; assay: as above; format: cell-based; conditions: Mycoplasmoides gallisepticum, STRAIN2012
Procedure: as §3

[8] = system: Mycoplasma gallisepticum Strain DP-1047; assay: as above; format: cell-based; conditions: Mycoplasmoides gallisepticum
Procedure: as §3

[9] = system: Mycoplasma gallisepticum Strain T-2; assay: as above; format: cell-based; conditions: Mycoplasmoides gallisepticum
Procedure: as §3

[10] = system: Mycoplasma gallisepticum Strain T-7; assay: as above; format: cell-based; conditions: Mycoplasmoides gallisepticum, Mycoplasma gallisepticum Strain T-7, from chicken, 37°C, 3-5 days
Procedure: as §3

Mycoplasma gallisepticum = assay: Effect of oral administration on chicken inoculated with Mycoplasma gallisepticum; format: in vivo; conditions: for Chickens developing disease in air sac (naked eye observation) / No. of dead chickens: 5 tested chickens
Procedure: Mycoplasma gallisepticum cells collected from chickens having respiratory Mycoplasma infection were cultured for 3 days in a Frey liquid media for Mycoplasma. 0.2 ml of this culture broth was injected into the trachea of chickens of an average body weight of 80 g using a 1 ml disposable injection needle. Beginning from the next day following the inoculation, feeds to which Compound (1) had been added in the amount of 100 ppm, 75 ppm, or 50 ppm were freely given to the chickens for 5 days. Following the administration of Compound (1) the chickens were given feed containing no drug for a further 5 days. The surviving chickens were sacrificed and dissected. After examination of the degree of disease in the air sac, Mycoplasma gallisepticum in the infraorbital sinus, trachea, lung, and air sac were determined. […] TABLE 6 […]

[11] = Acute toxicity test, intravenous injection; format: in vivo
Procedure: Representative test compounds, Compounds (2) and (3), were intravenously injected to mice. No fatality occurred at a dose of 200 mg/kg (10 mice/group), for Compound (2), and a dose of 200 mg/kg (6 mice/group), for Compound (3). From the results, the LD₅₀ values of the compounds are considered to be greater than 200 mg/kg.

[12] = Bordetella, OKM1, Bordetella bronchiaseptica OKM-1, Pig, read-out: MIC
[13] = Escherichia coli 139, Cow, read-out: MIC
[14] = Escherichia coli, 881, Escherichia coli 881, Pig, read-out: MIC
[15] = Escherichia coli, S6W, Escherichia coli S6W, Chicken, read-out: MIC
[16] = Salmonella typhimurium 103, Chicken, read-out: MIC
[17] = Salmonella enterica, TYPHIMURIUM, Salmonella typhimurium 569, Pig, read-out: MIC
[18] = Staphylococcus aureus Yamaguchi 6, Chicken, read-out: MIC
[19] = Pasteurella multocida DB-12-1, Pig, read-out: MIC
[20] = Mycoplasma gallisepticum Strain 2004, from chicken, Frey liquid medium, 37°C, 3-5 days, read-out: MIC
[21] = Mycoplasma gallisepticum Strain 2012, from chicken, Frey liquid medium, 37°C, 3-5 days, read-out: MIC
[22] = Mycoplasma gallisepticum Strain DP-1047, from chicken, Frey liquid medium, 37°C, 3-5 days, read-out: MIC
[23] = Mycoplasma gallisepticum Strain T-2, from chicken, Frey liquid medium, 37°C, 3-5 days, read-out: MIC

CCCN1CCN(c2c(F)cc3c(=O)c(C(=O)O)cn4c3c2OC[C@@H]4C)CC1 [Compound (7), 3S-9-fluoro-2,3-dihydro-3-methyl-10-(4-n-propyl-1-piperazinyl)-7-oxo-7H-pyrido[1,2,3-de] [1,4]benzoxazine-6-carboxylic acid]
MIC [1, 12]: 0.39 µg/mL (≈ 1 µM)
MIC (Escherichia coli 139; [13]): 0.2 µg/mL (≈ 0.514 µM)
MIC (Escherichia coli 881; [14]): 0.2 µg/mL (≈ 0.514 µM)
MIC (Escherichia coli S6W; [15]): 0.2 µg/mL (≈ 0.514 µM)
MIC [2, 16]: 0.2 µg/mL (≈ 0.514 µM)
MIC [3, 17]: 0.2 µg/mL (≈ 0.514 µM)
MIC [4, 18]: 0.2 µg/mL (≈ 0.514 µM)

CCCN1CCN(c2c(F)cc3c(=O)c(C(=O)O)cn4c3c2OCC4C)CC1 (racemic) [Compound (3), 3(RS)-9-fluoro-2,3-dihydro-3-methyl-10-(4-n-propyl-1-piperazinyl)-7-oxo-7H-pyrido[1,2,3-de] [1,4]benzoxazine-6-carboxylic acid]
MIC [1, 12]: 0.78 µg/mL (≈ 2 µM)
MIC (Escherichia coli 139; [13]): 0.39 µg/mL (≈ 1 µM)
MIC (Escherichia coli 881; [14]): 0.2 µg/mL (≈ 0.514 µM)
MIC (Escherichia coli S6W; [15]): 0.39 µg/mL (≈ 1 µM)
MIC [5, 19]: 0.1 µg/mL (≈ 0.257 µM)
MIC [2, 16]: 0.78 µg/mL (≈ 2 µM)
MIC [3, 17]: 0.39 µg/mL (≈ 1 µM)
MIC [4, 18]: 0.78 µg/mL (≈ 2 µM)
MIC [6, 20]: 0.025 µg/mL (≈ 0.0642 µM)
MIC [7, 21]: 0.05 µg/mL (≈ 0.128 µM)
MIC [8, 22]: 0.2 µg/mL (≈ 0.514 µM)
MIC [9, 23]: 0.2 µg/mL (≈ 0.514 µM)
MIC [10]: 0.39 µg/mL (≈ 1 µM)
Mycoplasma gallisepticum collected in Air sac (Mycoplasma gallisepticum; 50 ppm in feed for 5 days): 3.24 Logarithmic number of collected cells per 1 g of tissue
Mycoplasma gallisepticum collected in Infraorbital sinus (Mycoplasma gallisepticum; 50 ppm in feed for 5 days): 0/5
Mycoplasma gallisepticum collected in Lung (Mycoplasma gallisepticum; 50 ppm in feed for 5 days): 2.38 Logarithmic number of collected cells per 1 g of tissue
Mycoplasma gallisepticum collected in Trachea (Mycoplasma gallisepticum; 50 ppm in feed for 5 days): 0 Logarithmic number of collected cells per 1 g of tissue
Chickens developing disease in air sac (naked eye observation) (Mycoplasma gallisepticum; 50 ppm in feed for 5 days): 0
No. of dead chickens (Mycoplasma gallisepticum; 50 ppm in feed for 5 days): 0
Mycoplasma gallisepticum collected in Air sac (Mycoplasma gallisepticum; 75 ppm in feed for 5 days): 0 Logarithmic number of collected cells per 1 g of tissue
Mycoplasma gallisepticum collected in Infraorbital sinus (Mycoplasma gallisepticum; 75 ppm in feed for 5 days): 0/5
Mycoplasma gallisepticum collected in Lung (Mycoplasma gallisepticum; 75 ppm in feed for 5 days): 0 Logarithmic number of collected cells per 1 g of tissue
Mycoplasma gallisepticum collected in Trachea (Mycoplasma gallisepticum; 75 ppm in feed for 5 days): 0 Logarithmic number of collected cells per 1 g of tissue
Chickens developing disease in air sac (naked eye observation) (Mycoplasma gallisepticum; 75 ppm in feed for 5 days): 0
No. of dead chickens (Mycoplasma gallisepticum; 75 ppm in feed for 5 days): 0
Mycoplasma gallisepticum collected in Air sac (Mycoplasma gallisepticum; 100 ppm in feed for 5 days): 0 Logarithmic number of collected cells per 1 g of tissue
Mycoplasma gallisepticum collected in Infraorbital sinus (Mycoplasma gallisepticum; 100 ppm in feed for 5 days): 0/5
Mycoplasma gallisepticum collected in Lung (Mycoplasma gallisepticum; 100 ppm in feed for 5 days): 0 Logarithmic number of collected cells per 1 g of tissue
Mycoplasma gallisepticum collected in Trachea (Mycoplasma gallisepticum; 100 ppm in feed for 5 days): 0 Logarithmic number of collected cells per 1 g of tissue
Chickens developing disease in air sac (naked eye observation) (Mycoplasma gallisepticum; 100 ppm in feed for 5 days): 0
No. of dead chickens (Mycoplasma gallisepticum; 100 ppm in feed for 5 days): 0
fatality ([11]; mice, intravenously injected, dose of 200 mg/kg): No fatality
LD50 ([11]; mouse, in vivo, iv): > 200 mg/kg

CCCCN1CCN(c2c(F)cc3c(=O)c(C(=O)O)cn4c3c2OCC4C)CC1 (racemic) [Compound (5), 3(RS)-9-fluoro-2,3-dihydro-3-methyl-10-(4-n-butyl-1-piperazinyl)-7-oxo-7H-pyrido[1,2,3-de] [1,4]benzoxazine-6-carboxylic acid]
MIC [1, 12]: 0.78 µg/mL (≈ 1.93 µM)
MIC (Escherichia coli 139; [13]): 0.78 µg/mL (≈ 1.93 µM)
MIC (Escherichia coli 881; [14]): 0.78 µg/mL (≈ 1.93 µM)
MIC (Escherichia coli S6W; [15]): 0.78 µg/mL (≈ 1.93 µM)
MIC [5, 19]: 0.1 µg/mL (≈ 0.248 µM)
MIC [2, 16]: 1.56 µg/mL (≈ 3.87 µM)
MIC [3, 17]: 0.78 µg/mL (≈ 1.93 µM)
MIC [4, 18]: 0.78 µg/mL (≈ 1.93 µM)
MIC [6, 20]: 0.025 µg/mL (≈ 0.062 µM)
MIC [7, 21]: 0.025 µg/mL (≈ 0.062 µM)
MIC [8, 22]: 0.1 µg/mL (≈ 0.248 µM)
MIC [9, 23]: 0.1 µg/mL (≈ 0.248 µM)
MIC [10]: 0.1 µg/mL (≈ 0.248 µM)

CCN1CCN(c2c(F)cc3c(=O)c(C(=O)O)cn4c3c2OC[C@@H]4C)CC1 [(6), 3S-9-fluoro-2,3-dihydro-3-methyl-10-(4-ethyl-1-piperazinyl)-7-oxo-7H-pyrido[1,2,3-de] [1,4]benzoxazine-6-carboxylic acid]
MIC [1, 12]: 0.2 µg/mL (≈ 0.533 µM)
MIC (Escherichia coli 139; [13]): 0.1 µg/mL (≈ 0.266 µM)
MIC (Escherichia coli 881; [14]): 0.1 µg/mL (≈ 0.266 µM)
MIC (Escherichia coli S6W; [15]): 0.1 µg/mL (≈ 0.266 µM)
MIC [2, 16]: 0.1 µg/mL (≈ 0.266 µM)
MIC [3, 17]: 0.1 µg/mL (≈ 0.266 µM)
MIC [4, 18]: 0.2 µg/mL (≈ 0.533 µM)

CCN1CCN(c2c(F)cc3c(=O)c(C(=O)O)cn4c3c2OCC4C)CC1 (racemic) [Compound (8), 3(RS)-9-fluoro-2,3-dihydro-3-methyl-10-(4-ethyl-1-piperazinyl)-7-oxo-7H-pyrido[1,2,3-de] [1,4]benzoxazine-6-carboxylic acid hydrochloride hemihydrate]
MIC ([1]; Bordetella bronchiaseptica OKM-1, Pig, listed as No. 8, hydrochloride hemihydrate): 0.39 µg/mL
MIC (Escherichia coli 881; Escherichia coli 881, Pig, listed as No. 8, hydrochloride hemihydrate): 0.2 µg/mL
MIC (Escherichia coli S6W; Escherichia coli S6W, Chicken, listed as No. 8, hydrochloride hemihydrate): 0.2 µg/mL
MIC ([3]; Salmonella typhimurium 569, Pig, listed as No. 8, hydrochloride hemihydrate): 0.2 µg/mL

CC(C)N1CCN(c2c(F)cc3c(=O)c(C(=O)O)cn4c3c2OCC4C)CC1 (racemic) [(4), 3(RS)-9-fluoro-2,3-dihydro-3-methyl-10-(4-iso-propyl-1-piperazinyl)-7-oxo-7H-pyrido[1,2,3-de] [1,4]benzoxazine-6-carboxylic acid]
MIC [1, 12]: 0.78 µg/mL (≈ 2 µM)
MIC (Escherichia coli 139; [13]): 0.78 µg/mL (≈ 2 µM)
MIC (Escherichia coli 881; [14]): 0.39 µg/mL (≈ 1 µM)
MIC (Escherichia coli S6W; [15]): 0.78 µg/mL (≈ 2 µM)
MIC [5, 19]: 0.2 µg/mL (≈ 0.514 µM)
MIC [2, 16]: 0.78 µg/mL (≈ 2 µM)
MIC [3, 17]: 0.78 µg/mL (≈ 2 µM)
MIC [4, 18]: 0.78 µg/mL (≈ 2 µM)
MIC [6, 20]: 0.05 µg/mL (≈ 0.128 µM)
MIC [7, 21]: 0.05 µg/mL (≈ 0.128 µM)
MIC [8, 22]: 0.2 µg/mL (≈ 0.514 µM)
MIC [9, 23]: 0.39 µg/mL (≈ 1 µM)
MIC [10]: 0.39 µg/mL (≈ 1 µM)

CCn1cc(C(=O)O)c(=O)c2cc3c(cc21)OCO3 [Oxolinic acid, reference compound]
MIC ([1]; Bordetella, OKM1): 1.56 µg/mL (≈ 5.97 µM)
MIC (Escherichia coli 139; Escherichia coli, 139): 0.78 µg/mL (≈ 2.99 µM)
MIC (Escherichia coli 881; Escherichia coli, 881): 0.39 µg/mL (≈ 1.49 µM)
MIC (Escherichia coli S6W; Escherichia coli, S6W): 0.39 µg/mL (≈ 1.49 µM)
MIC ([5]; Pasteurella multocida): 0.2 µg/mL (≈ 0.766 µM)
MIC ([2]; TYPHIMURIUM): 0.78 µg/mL (≈ 2.99 µM)
MIC ([3]; Salmonella enterica, TYPHIMURIUM): 0.39 µg/mL (≈ 1.49 µM)
MIC ([4]; Staphylococcus aureus): 3.13 µg/mL (≈ 12 µM)
MIC [6]: > 100 µg/mL
MIC [7]: > 100 µg/mL
MIC [8]: > 100 µg/mL
MIC [9]: > 100 µg/mL
